In publication PMC7031696 (Cell chemical biology, 2019):
Where two headings read alike, the source gives them in different places.

Columns and labels:
[1] = system: asynchronous 3D7-A10 parasite cultures; test: Standard 72-h exposure asexual blood stage susceptibility assay (IC50^72h); format: cell-based, Plasmodium falciparum; settings: Plasmodium falciparum, 3D7, 72 h, read-out: Overall (72hr assay) Mean IC50 (IC50^72h)
[2] = system: Plasmodium falciparum 3D7-A10 parasites; test: Stage specificity assay (8-h exposure of synchronized stages, IC50^8h); format: cell-based; settings: for IC50: Plasmodium falciparum
[3] = system: 3D7-MR4 trophozoite parasite-infected RBCs; test: Metabolomic profiling (hydrophilic metabolite changes, UHPLC-MS); format: cell-based, Plasmodium falciparum
[4] = system: 3D7-MR4 trophozoite parasite-infected RBCs; settings: 10 × IC50^72h; ref Allman et al., 2016; cited from earlier work

IC50 [1]: 103 nM
Ratio lowest IC50 8hr/IC50 72hr ([2]; 3D7-A10): 3.7
SMILES: CCN(CC)CCn1c(=N)n(CC(O)c2ccc(Cl)c(Cl)c2)c2ccccc21.Cl (stereo not shown) [MMV000248]
IC50 ([2]; 3D7, read-out: Early trophozoites Mean IC50 (IC50^8h), 8-h exposure 16–24 hr, 3D7-A10, survival at 60 h): 411 nM
IC50 ([2]; 3D7, read-out: Late rings Mean IC50 (IC50^8h), 8-h exposure 8–16 hr, 3D7-A10, survival at 60 h): 6740 nM
IC50 ([2]; 3D7, read-out: Late trophozoites Mean IC50 (IC50^8h), 8-h exposure 24–32 hr, 3D7-A10, survival at 60 h): 376 nM
IC50 ([2]; 3D7, read-out: Schizonts Mean IC50 (IC50^8h), 8-h exposure 32–40 hr, 3D7-A10, survival at 60 h): 754 nM
Stage of peak activity (Figure 6) ([2]; period when the parasite was most susceptible (lowest IC50^8h)): trophozoites
Peak Activity (Table S1) ([2]; stage(s) with the lowest IC50^8h): Trophs
Log2(fold changes) 3-phosphoglycerate ([3]; metabolite 3-phosphoglycerate, log2 fold change): 0.5325
Log2(fold changes) 4-Pyridoxic acid ([3]; metabolite 4-Pyridoxic acid, log2 fold change): -0.4298
Log2(fold changes) 4-aminobutyrate ([3]; metabolite 4-aminobutyrate, log2 fold change): 0.1717
Log2(fold changes) 4-phosphopantetheine ([3]; metabolite 4-phosphopantetheine, log2 fold change): 0.0000
Log2(fold changes) 4-phosphopantothenate ([3]; metabolite 4-phosphopantothenate, log2 fold change): -0.4691
Log2(fold changes) 5-aminopentanoic acid ([3]; metabolite 5-aminopentanoic acid, log2 fold change): 0.0000
Log2(fold changes) 5-methyl-THF ([3]; metabolite 5-methyl-THF, log2 fold change): 0.0000
Log2(fold changes) 5-phosphoribosyl-1-pyrophosphate ([3]; metabolite 5-phosphoribosyl-1-pyrophosphate, log2 fold change): -1.6071
Log2(fold changes) 6-phospho-D-gluconate ([3]; metabolite 6-phospho-D-gluconate, log2 fold change): -0.0745
Log2(fold change) HVDD ([3]; metabolite HVDD): 0.0000
Log2(fold change) Hydroxyisocaproic acid ([3]; metabolite Hydroxyisocaproic acid): 0.0000
Log2(fold change) IDP ([3]; metabolite IDP): 0.0000
Log2(fold change) IMP ([3]; metabolite IMP): -0.5306
Log2(fold change) Inositol ([3]; metabolite Inositol): 0.0000
Log2(fold change) Isopentyl-PP ([3]; metabolite Isopentyl-PP): 0.0000
Log2(fold change) L-arginino-succinate ([3]; metabolite L-arginino-succinate): 0.0000
Log2(fold change) LD ([3]; metabolite LD): -0.2580
Log2(fold change) Myristoyl/tetradecanoyl-CoA ([3]; metabolite Myristoyl/tetradecanoyl-CoA): 0.0000
Log2(fold change) N-Acetyl-L-alanine ([3]; metabolite N-Acetyl-L-alanine): -0.7106
Log2(fold change) N-acetyl-L-ornithine ([3]; metabolite N-acetyl-L-ornithine): -2.2540
Log2(fold change) N-acetyl-glucosamine-1/6-phosphate ([3]; metabolite N-acetyl-glucosamine-1/6-phosphate): 0.4803
Log2(fold change) N-acetyl-glutamate ([3]; metabolite N-acetyl-glutamate): 0.5064
Log2(fold change) N-acetyl-glutamine ([3]; metabolite N-acetyl-glutamine): -0.2284
Log2(fold change) N-carbamoyl-L-aspartate ([3]; metabolite N-carbamoyl-L-aspartate): -0.8588
Log2(fold change) NAD+ ([3]; metabolite NAD+): -0.1903
Log2(fold change) NADH ([3]; metabolite NADH): 0.1160
Log2(fold change) NADP+ ([3]; metabolite NADP+): -0.0428
Log2(fold change) NADPH ([3]; metabolite NADPH): 0.7586
Log2(fold change) O-acetyl-L-serine ([3]; metabolite O-acetyl-L-serine): 0.0000
Log2(fold change) Octoluse 8/1P ([3]; metabolite Octoluse 8/1P): 0.0988
Log2(fold change) Octoluse Bisphosphate ([3]; metabolite Octoluse Bisphosphate): -0.4045
Log2(fold change) PD ([3]; metabolite PD): -2.8921
Log2(fold change) PE ([3]; metabolite PE): -2.0895
Log2(fold change) PEE ([3]; metabolite PEE): -1.2134
Log2(fold change) PEEK ([3]; metabolite PEEK): -1.2498
Log2(fold change) PVNF ([3]; metabolite PVNF): -4.7386
Log2(fold change) Pyroglutamic acid ([3]; metabolite Pyroglutamic acid): -0.2793
Log2(fold change) Pyrophosphate ([3]; metabolite Pyrophosphate): -1.6691
Log2(fold change) Ribose-5-phosphate ([3]; metabolite Ribose-5-phosphate): 0.0000
Log2(fold change) S-adenosyl-L-homocysteine ([3]; metabolite S-adenosyl-L-homocysteine): -0.0077
Log2(fold change) S-adenosyl-L-methioninamine ([3]; metabolite S-adenosyl-L-methioninamine): 0.0000
Log2(fold change) S-adenosyl-L-methionine ([3]; metabolite S-adenosyl-L-methionine): 0.0000
Log2(fold change) S-methyl-5'-thioadenosine ([3]; metabolite S-methyl-5'-thioadenosine): 0.7911
Log2(fold change) SD ([3]; metabolite SD): -1.1732
Log2(fold change) SDL ([3]; metabolite SDL): 0.0000
Log2(fold change) SID ([3]; metabolite SID): 0.0000
Log2(fold change) Sedoheptulose bisphosphate ([3]; metabolite Sedoheptulose bisphosphate): -0.2688
Log2(fold change) Thiamine pyrophosphate ([3]; metabolite Thiamine pyrophosphate): 0.0000
Log2(fold changes) UDP-D-glucose ([3]; metabolite UDP-D-glucose, log2 fold change): -0.0583
Log2(fold changes) UDP-D-glucuronate ([3]; metabolite UDP-D-glucuronate, log2 fold change): -0.2918
Log2(fold changes) UDP-N-acetyl-glucosamine ([3]; metabolite UDP-N-acetyl-glucosamine, log2 fold change): -0.1616
Log2(fold changes) UDP ([3]; metabolite UDP, log2 fold change): -0.0490
Log2(fold changes) UMP ([3]; metabolite UMP, log2 fold change): -0.4851
Log2(fold changes) UTP ([3]; metabolite UTP, log2 fold change): -1.1444
Log2(fold change) hydroxyphenylpyruvate ([3]; metabolite hydroxyphenylpyruvate): 0.0000
Log2(fold change) hydroxyproline/Aminolevulinate ([3]; metabolite hydroxyproline/Aminolevulinate): 0.0000
Log2(fold change) hypoxanthine ([3]; metabolite hypoxanthine): -0.4020
Log2(fold change) indole ([3]; metabolite indole): -0.6106
Log2(fold change) inosine ([3]; metabolite inosine): -0.0831
Log2(fold change) isoleucine ([3]; metabolite isoleucine): 0.0000
Log2(fold change) lactate ([3]; metabolite lactate): -0.0810
Log2(fold change) leucine ([3]; metabolite leucine): 0.0000
Log2(fold change) lysine ([3]; metabolite lysine): 0.0000
Log2(fold change) malate ([3]; metabolite malate): -0.9119
Log2(fold change) maleic acid ([3]; metabolite maleic acid): 0.0000
Log2(fold change) methionine ([3]; metabolite methionine): 0.0000
Log2(fold change) myo-inositol ([3]; metabolite myo-inositol): 0.1446
Log2(fold change) nicotinamide mononucleotide ([3]; metabolite nicotinamide mononucleotide): 0.0000
Log2(fold change) nicotinate ([3]; metabolite nicotinate): 0.0498
Log2(fold change) ornithine ([3]; metabolite ornithine): 0.1803
Log2(fold change) orotate ([3]; metabolite orotate): -0.8832
Log2(fold change) orotidine-5'-phosphate ([3]; metabolite orotidine-5'-phosphate): 0.0000
Log2(fold change) oxaloacetate ([3]; metabolite oxaloacetate): 0.0000
Log2(fold change) p-aminobenzoate ([3]; metabolite p-aminobenzoate): 0.0000
Log2(fold change) p-hydroxybenzoate ([3]; metabolite p-hydroxybenzoate): 0.2564
Log2(fold change) pantothenate ([3]; metabolite pantothenate): 0.0000
Log2(fold change) phenylalanine ([3]; metabolite phenylalanine): 0.0000
Log2(fold change) phenylpyruvate ([3]; metabolite phenylpyruvate): -0.8371
Log2(fold change) phosphoenolpyruvate ([3]; metabolite phosphoenolpyruvate): 0.4091
Log2(fold change) prephenate ([3]; metabolite prephenate): 0.0000
Log2(fold change) proline ([3]; metabolite proline): 0.0000
Log2(fold change) pyridoxine ([3]; metabolite pyridoxine): 0.0000
Log2(fold change) pyruvate ([3]; metabolite pyruvate): -0.4292
Log2(fold change) riboflavin ([3]; metabolite riboflavin): 0.0000
Log2(fold change) ribose ([3]; metabolite ribose): 0.0000
Log2(fold change) ribose-phosphate ([3]; metabolite ribose-phosphate): -0.0154
Log2(fold change) ribulose-5-phosphate ([3]; metabolite ribulose-5-phosphate): 0.0000
Log2(fold change) serine ([3]; metabolite serine): 0.0000
Log2(fold change) sn-glycerol-3-phosphate ([3]; metabolite sn-glycerol-3-phosphate): 0.2907
Log2(fold change) succinate/Methylmalonic acid ([3]; metabolite succinate/Methylmalonic acid): -0.5437
Log2(fold change) succinyl-CoA/methylmalonyl-CoA ([3]; metabolite succinyl-CoA/methylmalonyl-CoA): 0.0000
Log2(fold change) taurine ([3]; metabolite taurine): 0.0000
Log2(fold change) thiamine ([3]; metabolite thiamine): 0.0000
Log2(fold change) threonine/homoserine ([3]; metabolite threonine/homoserine): 0.0000
Log2(fold change) thymidine ([3]; metabolite thymidine): -0.8046
Log2(fold changes) thymine ([3]; metabolite thymine, log2 fold change): -0.3850
Log2(fold changes) trehalose-6-Phosphate ([3]; metabolite trehalose-6-Phosphate, log2 fold change): 0.0000
Log2(fold changes) tryptophan ([3]; metabolite tryptophan, log2 fold change): 0.0000
Log2(fold changes) tyrosine ([3]; metabolite tyrosine, log2 fold change): 0.0000
Log2(fold changes) uridine ([3]; metabolite uridine, log2 fold change): -0.9561
peptide levels (hemoglobin catabolism signature) [4]: decreased peptide levels
